In assay [1] the test system is HCV genotype 1a (H77 strain) replicon in HUH-7 cells. The assay is described as follows: HCV replicon luciferase reporter assay, genotype 1a. It is filed as cell-based. As to conditions: Hepatitis C virus, 72 h, genotype 1a replicon, 3 days incubation. An outline of the steps:
(§1)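 Twenty-point, threefold compound titrations (0.5% DMSO) were incubated 3 days at 37 °C with 3.0×10^3 HUH-7 cells/well in 4% FCS. The cells stably carried luciferase replicons: genotype 1b Con1 (S1179I) or 1a H77 (NS3 P1496L, NS5A S2204I). Renilla signal was read after 2 h with 7.5 μM EnduRen, and EC50 was taken from a four-parameter logistic fit. Cytotoxicity (CC50) was measured by Cell Titer-Blue, 8 h.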

The test system of assay [2] is HCV genotype 1b (Con1) replicon in HUH-7 cells. The assay can be described thus: HCV replicon luciferase reporter assay, genotype 1b. To be noted: Hepatitis C virus, 72 h, genotype 1b replicon, 3 days incubation. It is filed as cell-based. The method in brief: as §1

Like-named read-outs stand apart in the source and are kept apart here.

With `COC[C@@H]1C[C@H](C)CC/C=C\[C@@H]2C[C@@]2(C(=O)NS(=O)(=O)C2(C)CC2)NC(=O)[C@@H]2C[C@@H](Oc3nc4cc(OC)ccc4nc3C(F)(F)F)CN2C(=O)[C@H]1NC(=O)OC(C)(C)C(F)(F)F` [Compound 1032, 1,1,1-trifluoro-2-methylpropan-2-yl ((2R,6S,7R,9R,13aS,14aR,16aS,Z)-2-((7-methoxy-3-(trifluoromethyl)quinoxalin-2-yl)oxy)-7-(methoxymethyl)-9-methyl-14a-(((1-methylcyclopropyl)sulfonyl)carbamoyl)-5,16-dioxo-1,2,3,5,6,7,8,9,10,11,13a,14,14a,15,16,16a-hexadecahydrocyclopropa[e]pyrrolo[1,2-a][1,4]diazacyclopentadecin-6-yl)carbamate], the EC50 was 0.51 to 1 nM in assay [1] (read-out: LE_1a (EC50, range)) and 0.1 to 0.5 nM in assay [2] (read-out: LE_1b (EC50, range)).
With `COC[C@@H]1C[C@@H](C)CC/C=C\[C@@H]2C[C@@]2(C(=O)NS(=O)(=O)C2(C)CC2)NC(=O)[C@@H]2C[C@@H](Oc3nc4cc(OC)ccc4nc3C(C)C)CN2C(=O)[C@H]1NC(=O)OC(C)(C)C(F)(F)F` [Compound 1033, 1,1,1-trifluoro-2-methylpropan-2-yl ((2R,6S,7R,9S,13aS,14aR,16aS,Z)-2-((3-isopropyl-7-methoxyquinoxalin-2-yl)oxy)-7-(methoxymethyl)-9-methyl-14a-(((1-methylcyclopropyl)sulfonyl)carbamoyl)-5,16-dioxo-1,2,3,5,6,7,8,9,10,11,13a,14,14a,15,16,16a-hexadecahydrocyclopropa[e]pyrrolo[1,2-a][1,4]diazacyclopentadecin-6-yl)carbamate], the half-maximal effective concentration (EC50) in assay [1] (read-out: LE_1a (EC50, range)) lay within 5.01 to 35 nM; in assay [2] (read-out: LE_1b (EC50, range)), 1.01 to 5 nM.
As for `COC[C@@H]1C[C@H](C)CC/C=C\[C@@H]2C[C@@]2(C(=O)NS(=O)(=O)C2(C)CC2)NC(=O)[C@@H]2C[C@@H](Oc3nc4cc(OC)ccc4nc3C(C)C)CN2C(=O)[C@H]1NC(=O)OC(C)(C)C(F)(F)F` [Compound 1034, 1,1,1-trifluoro-2-methylpropan-2-yl ((2R,6S,7R,9R,13aS,14aR,16aS,Z)-2-((3-isopropyl-7-methoxyquinoxalin-2-yl)oxy)-7-(methoxymethyl)-9-methyl-14a-(((1-methylcyclopropyl)sulfonyl)carbamoyl)-5,16-dioxo-1,2,3,5,6,7,8,9,10,11,13a,14,14a,15,16,16a-hexadecahydrocyclopropa[e]pyrrolo[1,2-a][1,4]diazacyclopentadecin-6-yl)carbamate], the concentration giving a half-maximal response (EC50) in assay [1] (read-out: LE_1a (EC50, range)) fell in the range of 1.01 to 5 nM; in assay [2] (read-out: LE_1b (EC50, range)), 0.51 to 1 nM.
The matching figures for `COC[C@@H]1C[C@H](C)CC/C=C\[C@@H]2C[C@@]2(C(=O)NS(=O)(=O)C2(CF)CC2)NC(=O)[C@@H]2C[C@@H](Oc3nc4cc(OC)ccc4nc3C(F)(F)F)CN2C(=O)[C@H]1NC(=O)OC(C)(C)C` [Compound 1035, tert-butyl ((2R,6S,7R,9R,13aS,14aR,16aS,Z)-14a-(((1-(fluoromethyl)cyclopropyl)sulfonyl)carbamoyl)-2-((7-methoxy-3-(trifluoromethyl)quinoxalin-2-yl)oxy)-7-(methoxymethyl)-9-methyl-5,16-dioxo-1,2,3,5,6,7,8,9,10,11,13a,14,14a,15,16,16a-hexadecahydrocyclopropa[e]pyrrolo[1,2-a][1,4]diazacyclopentadecin-6-yl)carbamate]: 1.01 to 5 nM and 1.01 to 5 nM.
On the same counts, the results for `COC[C@@H]1C[C@H](C)CC/C=C\[C@@H]2C[C@@]2(C(=O)NS(=O)(=O)C2(CF)CC2)NC(=O)[C@@H]2C[C@@H](Oc3nc4cc(OC)ccc4nc3C(F)(F)F)CN2C(=O)[C@H]1NC(=O)OC(C)(C)C(F)(F)F` [Compound 1037, 1,1,1-trifluoro-2-methylpropan-2-yl ((2R,6S,7R,9R,13aS,14aR,16aS,Z)-14a-(((1-(fluoromethyl)cyclopropyl)sulfonyl)carbamoyl)-2-((7-methoxy-3-(trifluoromethyl)quinoxalin-2-yl)oxy)-7-(methoxymethyl)-9-methyl-5,16-dioxo-1,2,3,5,6,7,8,9,10,11,13a,14,14a,15,16,16a-hexadecahydrocyclopropa[e]pyrrolo[1,2-a][1,4]diazacyclopentadecin-6-yl)carbamate] are 1.01 to 5 nM and 1.01 to 5 nM.
For `COC[C@@H]1C[C@@H](C)CC/C=C\[C@@H]2C[C@@]2(C(=O)NS(=O)(=O)C2(CF)CC2)NC(=O)[C@@H]2C[C@@H](Oc3nc4cc(OC)ccc4nc3C(F)(F)F)CN2C(=O)[C@H]1NC(=O)OC(C)(C)C(F)(F)F` [Compound 1038, 1,1,1-trifluoro-2-methylpropan-2-yl ((2R,6S,7R,9S,13aS,14aR,16aS,Z)-14a-(((1-(fluoromethyl)cyclopropyl)sulfonyl)carbamoyl)-2-((7-methoxy-3-(trifluoromethyl)quinoxalin-2-yl)oxy)-7-(methoxymethyl)-9-methyl-5,16-dioxo-1,2,3,5,6,7,8,9,10,11,13a,14,14a,15,16,16a-hexadecahydrocyclopropa[e]pyrrolo[1,2-a][1,4]diazacyclopentadecin-6-yl)carbamate], the EC50 was 35 nM in assay [1] (read-out: LE_1a (EC50)); 35 to 620 nM in assay [1] (read-out: LE_1a (EC50, range)); 14.7 nM in assay [2] (read-out: LE_1b (EC50)); 5.01 to 35 nM in assay [2] (read-out: LE_1b (EC50, range)).
In the case of `COC[C@@H]1C[C@H](C)CC/C=C\[C@@H]2C[C@@]2(C(=O)NS(=O)(=O)C2(CF)CC2)NC(=O)[C@@H]2C[C@@H](Oc3nc4cc(OC)ccc4nc3C(C)C)CN2C(=O)[C@H]1NC(=O)OC(C)(C)C(F)(F)F` [Compound 1039], the EC50 in assay [1] (read-out: LE_1a (EC50, range)) fell in the range of 5.01 to 35 nM; in assay [2] (read-out: LE_1b (EC50, range)), 1.01 to 5 nM.
Take `COC[C@@H]1C[C@@H](C)CC/C=C\[C@@H]2C[C@@]2(C(=O)NS(=O)(=O)C2(CF)CC2)NC(=O)[C@@H]2C[C@@H](Oc3nc4cc(OC)ccc4nc3C(C)C)CN2C(=O)[C@H]1NC(=O)OC(C)(C)C(F)(F)F` [Compound 1040, 1,1,1-trifluoro-2-methylpropan-2-yl ((2R,6S,7R,9S,13aS,14aR,16aS,Z)-14a-(((1-(fluoromethyl)cyclopropyl)sulfonyl)carbamoyl)-2-((3-isopropyl-7-methoxyquinoxalin-2-yl)oxy)-7-(methoxymethyl)-9-methyl-5,16-dioxo-1,2,3,5,6,7,8,9,10,11,13a,14,14a,15,16,16a-hexadecahydrocyclopropa[e]pyrrolo[1,2-a][1,4]diazacyclopentadecin-6-yl)carbamate]: the EC50 in assay [1] (read-out: LE_1a (EC50, range)) was in the range of 35 to 620 nM; in assay [2] (read-out: LE_1b (EC50, range)), 35 to 620 nM.
On to `COC[C@@H]1C[C@H](C)CC/C=C\[C@@H]2C[C@@]2(C(=O)NS(=O)(=O)C2CC2)NC(=O)[C@@H]2C[C@@H](Oc3nc4cc(OC)ccc4nc3C(F)(F)F)CN2C(=O)[C@H]1NC(=O)OC(C)(C)C(F)(F)F` [Compound 1041, 1,1,1-trifluoro-2-methylpropan-2-yl ((2R,6S,7R,9R,13aS,14aR,16aS,Z)-14a-((cyclopropylsulfonyl)carbamoyl)-2-((7-methoxy-3-(trifluoromethyl)quinoxalin-2-yl)oxy)-7-(methoxymethyl)-9-methyl-5,16-dioxo-1,2,3,5,6,7,8,9,10,11,13a,14,14a,15,16,16a-hexadecahydrocyclopropa[e]pyrrolo[1,2-a][1,4]diazacyclopentadecin-6-yl)carbamate], for which the EC50 in assay [1] (read-out: LE_1a (EC50)) was 0.61 nM; in assay [1] (read-out: LE_1a (EC50, range)), 0.51 to 1 nM; in assay [2] (read-out: LE_1b (EC50)), 0.75 nM; in assay [2] (read-out: LE_1b (EC50, range)) it was 0.51 to 1 nM.

These data come from patent US9580463B2 (BRISTOL-MYERS SQUIBB COMPANY, priority 2013, dated 2017).
